Experimental data reported in paper PMC4187030, “Effect of cyclodextrin complexation on phenylpropanoids’ solubility and antioxidant activity” (Beilstein Journal of Organic Chemistry, 2014).
In brackets after ≈: the same amount, converted by molar mass. Like-named read-outs stand apart in the source and are kept apart here.

Key:
[1] = Phase solubility studies, RAMEB
Description: (§1) Phase solubility studies were carried out according to the method described by Higuchi and Connors. Excess amount of PP was added to 1 mL of CD solution at different concentrations ranging from 0 to 10 mM. The mixtures were shaken at 25 °C for 24 h then filtered through a 0.45 μm membrane filter. The concentration of PP in the filtrate was determined spectrophotometrically at the maximum wavelength corresponding to each PP. Phase solubility diagrams were obtained by plotting the solubility of PP as a function of CD concentration. Kf value of CD/PP inclusion complex was calculated from the linear segment of the phase–solubility diagrams using the following equation: […]
(§2) where S0 is the intrinsic solubility of PP in the absence of CD and the Slope is the slope of the phase–solubility profile. The solubilizing potential of CD was evaluated by the complexation efficiency (CE) parameter. CE equal the complex to free CD concentration ratio and was calculated from the slope of the phase solubility diagram: […]
(§3) where [CD/PP] is the concentration of dissolved inclusion complex and [CD] is the concentration of dissolved free CD. The CE can be used to calculate the PP:CD ratio as follows:
(§4) The correlation between the CE and the molecular weight of CD or guest allowed the determination of the increase in formulation bulk which can be calculated using the following equation: […]
(§5) where MWCD and MWPP are the molecular weight values of CD and PP, respectively.

[2] = Phase solubility studies, HP-β-CD
Description: as §1, §2, §3, §4, §5

[3] = DPPH radical scavenging activity; conditions: for Change of DPPH radical scavenging activity upon complexation with CDs: PP in 10 mM CD solution vs water; for Kinetic behavior of reaction with DPPH•: PP with ethanolic DPPH• solution; for DPPH radical scavenging (antioxidant) activity of PP alone: absence of CD, 1 h (3, 4, 6, 7) or 15 h (1, 2, 5), 25 °C
Description: The 2,2-diphenyl-1-picrylhydrazyl (DPPH) radical scavenging activity of PP and their inclusion complexes was measured using the method described by Brand-Williams, Cuvelier, and Berset (1995) with some modifications. 1 mg of PP was dissolved in 50 mL of water, or 10 mM CD solution. 2 mL aliquot of the solution was vigorously mixed with 2 mL of ethanolic DPPH^• solution (0.1 mM). […]. Blank sample was prepared by mixing 2 mL of distilled water with 2 mL of DPPH^• solution. The scavenging activity was calculated using the following equation: […]
where As and A0 are the absorbance of sample and blank sample, respectively.

[4] = Phase solubility studies, β-CD
Description: as §1, §2, §3, §4, §5

[5] = β-CD, cited from earlier work
[6] = α-CD, cited from earlier work
[7] = design: method as in earlier work; conditions: cited from earlier work
[8] = Formation constants (Kf) by UV–visible spectral displacement method, α-CD; type: physicochemical; conditions: UV–visible spectral displacement with MO (MO itself by direct titration), SD <10%
Description: (§6) Formation constant (Kf) values were calculated using a UV–visible spectral displacement method. This method implies first the characterization of the inclusion complexes between CDs and the competitor (methyl orange, MO). The results are summarized in Table 1 in comparison with values from the literature.
(§7) The UV–visible competition method with methyl orange (MO) as competitor was carried out according to the method described by Landy et al.. In order to calculate CD/PP Kf values, CD/MO inclusion complexes were firstly characterized by a direct titration method. Then, a spectral displacement method was applied by adding PP to a solution containing constant concentration of MO and CD. The addition of PP implied an absorbance increment leading to the calculation of CD/PP Kf values. Spectra were recorded between 520–530 nm for a MO concentration fixed at 0.1 mM. This wavelength range corresponds to the optimal spectral variation between the absorbance of free and complexed forms of MO. All Kf values were calculated by an algorithmic treatment applied to the first derivatives of UV spectra in order to avoid any spectral influence of diffraction phenomena. Absorption studies were performed using a UV–visible dual-beam spectrophotometer (Perkin Elmer Lambda 2S) with a 1 cm thick quartz cuvette.

[9] = HP-β-CD, cited from earlier work
[10] = Formation constants (Kf) by UV–visible spectral displacement method, CRYSMEB; type: physicochemical; conditions: UV–visible spectral displacement with MO (MO itself by direct titration), SD <10%
Description: as §6, §7

[11] = Formation constants (Kf) by UV–visible spectral displacement method, RAMEB; type: physicochemical; conditions: UV–visible spectral displacement with MO (MO itself by direct titration), SD <10%
Description: as §6, §7

[12] = Formation constants (Kf) by UV–visible spectral displacement method, β-CD; type: physicochemical; conditions: UV–visible spectral displacement with MO (MO itself by direct titration), SD <10%
Description: as §6, §7

[13] = Formation constants (Kf) by UV–visible spectral displacement method, HP-β-CD; type: physicochemical; conditions: UV–visible spectral displacement with MO (MO itself by direct titration), SD <10%
Description: as §6, §7

[14] = RAMEB, cited from earlier work
[15] = CRYSMEB, cited from earlier work
[16] = Description: as §1, §2, §3, §4, §5
[17] = Phase solubility studies, CRYSMEB
Description: as §1, §2, §3, §4, §5

[18] = Intrinsic solubility (S0) of PP in water; type: physicochemical; conditions: thermodynamic from solid, absence of CD, 25 °C
Description: as §1, §2

## randomly methylated β-cyclodextrin [RAMEB]
[1]
  CE mean value: 1.70

## CC(O)COC[C@H]1O[C@@H]2O[C@H]3[C@H](O)[C@@H](O)[C@@H](O[C@H]4[C@H](O)[C@@H](O)[C@@H](O[C@H]5[C@H](O)[C@@H](O)[C@@H](O[C@H]6[C@H](O)[C@@H](O)[C@@H](O[C@H]7[C@H](O)[C@@H](O)[C@@H](O[C@H]8[C@H](O)[C@@H](O)[C@@H](O[C@H]1[C@H](O)[C@H]2O)O[C@@H]8COCC(C)O)O[C@@H]7COCC(C)O)O[C@@H]6COCC(C)O)O[C@@H]5COCC(C)O)O[C@@H]4COCC(C)O)O[C@@H]3COCC(C)O (stereo partly drawn) [HP-β-CD, hydroxypropyl-β-cyclodextrin]
[2]; HP-β-CD, mean over the studied PPs
  CE mean value: 1.42

## isoeugenol [Isoeugenol (3)]
[3]
  Change of DPPH radical scavenging activity upon complexation with CDs: kept unchanged
  Kinetic behavior of reaction with DPPH•: reacted rapidly
  DPPH radical scavenging (antioxidant) activity of PP alone: higher antioxidant activity

## OC[C@H]1O[C@@H]2O[C@H]3[C@H](O)[C@@H](O)[C@@H](O[C@H]4[C@H](O)[C@@H](O)[C@@H](O[C@H]5[C@H](O)[C@@H](O)[C@@H](O[C@H]6[C@H](O)[C@@H](O)[C@@H](O[C@H]7[C@H](O)[C@@H](O)[C@@H](O[C@H]8[C@H](O)[C@@H](O)[C@@H](O[C@H]1[C@H](O)[C@H]2O)O[C@@H]8CO)O[C@@H]7CO)O[C@@H]6CO)O[C@@H]5CO)O[C@@H]4CO)O[C@@H]3CO [β-CD, β-cyclodextrin]
[4]
  CE mean value: 0.91

## COc1cc(/C=C/C(=O)O)ccc1O [Ferulic acid (7), ferulic acid]
[5]; ref 30
  Formation constant (Kf): 205 M⁻¹
[6]; ref 29
  Formation constant (Kf): 1162 M⁻¹
[7]
  log P: 1.249
[3]
  Change of DPPH radical scavenging activity upon complexation with CDs: kept unchanged
  Kinetic behavior of reaction with DPPH•: reacted rapidly
  DPPH radical scavenging (antioxidant) activity of PP alone: higher antioxidant activity
[8]
  Formation constant (Kf): 1769 M⁻¹
[9]; ref 30
  Formation constant (Kf): 590 M⁻¹
[10]
  Formation constant (Kf): 474 M⁻¹
[11]
  Formation constant (Kf): 908 M⁻¹
[12]
  Formation constant (Kf): 246 M⁻¹
[13]
  Formation constant (Kf): 451 M⁻¹

## C/C=C/c1ccc(OC)cc1 [trans-Anethole (1), trans-anethole]
[5]; ref 11
  Formation constant (Kf): 630 M⁻¹
[5]; ref 23
  Formation constant (Kf): 497 M⁻¹
[6]; ref 11
  Formation constant (Kf): 1163 M⁻¹
[6]; ref 23
  Formation constant (Kf): 710 M⁻¹
[7]
  log P: 3.096
[3]
  Change of DPPH radical scavenging activity upon complexation with CDs: increase in activity
  Kinetic behavior of reaction with DPPH•: slow kinetic behavior
  DPPH radical scavenging (antioxidant) activity of PP alone: reacted little
[8]
  Formation constant (Kf): 927 M⁻¹
[9]; ref 11
  Formation constant (Kf): 1042 M⁻¹
[9]; ref 23
  Formation constant (Kf): 981 M⁻¹
[10]
  Formation constant (Kf): 1039 M⁻¹
[14]; ref 11
  Formation constant (Kf): 1553 M⁻¹
[14]; ref 23
  Formation constant (Kf): 1110 M⁻¹
[11]
  Formation constant (Kf): 1815 M⁻¹
[12]
  Formation constant (Kf): 542 M⁻¹
[15]; ref 11
  Formation constant (Kf): 740 M⁻¹
[15]; ref 23
  Formation constant (Kf): 877 M⁻¹
[13]
  Formation constant (Kf): 845 M⁻¹

## C=CCc1ccc(OC)cc1 [Estragole (2), estragole]
[7]
  log P: 2.818
[2]
  Increase in formulation bulk: 32
  Kf: 1412 M⁻¹
[4]
  Increase in formulation bulk: 35
  Kf: 882 M⁻¹
[16]
  Increase in formulation bulk: 36
  Kf: 682 M⁻¹
[3]
  Change of DPPH radical scavenging activity upon complexation with CDs: increase in activity
  Kinetic behavior of reaction with DPPH•: slow kinetic behavior
  DPPH radical scavenging (antioxidant) activity of PP alone: reacted little
[8]
  Formation constant (Kf): 335 M⁻¹
[10]
  Formation constant (Kf): 1584 M⁻¹
[1]
  Increase in formulation bulk: 26
  Kf: 1694 M⁻¹
[11]
  Formation constant (Kf): 1916 M⁻¹
[12]
  Formation constant (Kf): 987 M⁻¹
[13]
  Formation constant (Kf): 1508 M⁻¹
[17]
  Increase in formulation bulk: 25
  Kf: 1512 M⁻¹

## CN(C)c1ccc(N=Nc2ccc(S(=O)(=O)[O-])cc2)cc1.[Na+] [MO, methyl orange, reference compound]
[8]
  Formation constant (Kf): 7810 M⁻¹
[10]
  Formation constant (Kf): 3594 M⁻¹
[11]
  Formation constant (Kf): 15400 M⁻¹
[12]
  Formation constant (Kf): 2386 M⁻¹
[13]
  Formation constant (Kf): 5597 M⁻¹

## low methylated β-cyclodextrin [CRYSMEB]
[17]
  CE mean value: 1.21

## O=C(O)/C=C/c1ccc(O)c(O)c1 [Caffeic acid (6), caffeic acid]
[5]; ref 26
  Formation constant (Kf): 278 M⁻¹
[5]; ref 27
  Formation constant (Kf): 516 M⁻¹
[2]; HP-β-CD, from CE and molecular weights
  Increase in formulation bulk: 18
[2]; HP-β-CD, from slope of phase solubility diagram and S0, 25 °C
  Kf: 534 M⁻¹
[4]
  Kf: 425 M⁻¹
[4]; β-CD, from CE and molecular weights
  Increase in formulation bulk: 15
[16]
  Increase in formulation bulk: 7
  Kf: 1819 M⁻¹
[3]
  Change of DPPH radical scavenging activity upon complexation with CDs: kept unchanged
  Kinetic behavior of reaction with DPPH•: reacted rapidly
  DPPH radical scavenging (antioxidant) activity of PP alone: higher antioxidant activity
[8]
  Formation constant (Kf): 1540 M⁻¹
[9]; ref 28
  Formation constant (Kf): 279 M⁻¹
[10]
  Formation constant (Kf): 404 M⁻¹
[1]; RAMEB, from CE and molecular weights
  Increase in formulation bulk: 13
[1]; RAMEB, from slope of phase solubility diagram and S0, 25 °C
  Kf: 825 M⁻¹
[11]
  Formation constant (Kf): 991 M⁻¹
[12]
  Formation constant (Kf): 318 M⁻¹
[13]
  Formation constant (Kf): 526 M⁻¹
[18]
  solubility at 24 h: 300 µg/mL (≈ 1670 µM)
[17]; CRYSMEB, from CE and molecular weights
  Increase in formulation bulk: 14
[17]; CRYSMEB, from slope of phase solubility diagram and S0, 25 °C
  Kf: 552 M⁻¹
